Assay results published in PMC10724293, “New ruthenium-xanthoxylin complex eliminates colorectal cancer stem cells by targeting the heat shock protein 90 chaperone” (Cell Death & Disease, 2023).

What was measured:
HCT116 cells [1] = assay: CD133 expression by flow cytometry; type: cell-based, human; settings: 10 μM, 24 h; control 32.0%
Protocol: For cell surface protein staining, cells were washed with incubation buffer (0.5% bovine serum albumin in PBS), and then antibodies were added and incubated for 1 h at room temperature. The cells were then washed with PBS, and cell fluorescence was measured using flow cytometry. To select viable cells for quantification of CD133-positive cells, YO-PRO-1 (Sigma-Aldrich Co.) was used.

HCT116 cells [2] = assay: Mitochondrial transmembrane potential, rhodamine 123 flow cytometry; type: cell-based, human; settings: 24 h, all concentrations tested
Protocol: To ensure mitochondrial transmembrane potential, the cells were stained with rhodamine 123 (5 µg/ml, Sigma-Aldrich Co.) at 37 °C for 15 min in the dark. The cells were then washed with saline and incubated in saline for 30 min in the dark at 37 °C, and cell fluorescence was determined using flow cytometry.

4T1 = assay: Alamar blue cytotoxicity assay; type: cell-based, mouse; settings: 72 h, read-out: IC50 and 95%CI
Protocol: (§1) The Alamar blue assay was used to determine cell viability as previously described. Cells were seeded into 96-well plates at a density of 7 × 10^3 cells per well for adherent cells or 3 × 10^4 cells per well for suspended cells. The drug was added to each well after 24 h of incubation for adherent cells or immediately for suspended cells and incubated for an additional 72 h. […] Each well received 100 µM resazurin (Sigma-Aldrich Co. St. Louis, MO, United States) four (for cell lines) or 24 (for primary culture) h before the end of the incubation. A SpectraMax 190 Microplate Reader (Molecular Devices, Sunnyvale, CA, USA) was used to measure absorbance at 570 and 600 nm.

B16-F10 = assay: Alamar blue cytotoxicity assay; type: cell-based, mouse; settings: 72 h, read-out: IC50 and 95%CI
Protocol: as §1

HCT116 cells [3] = assay: Wound healing assay; type: cell-based, human; settings: 72 h, noncytotoxic concentrations
Protocol: Wound healing assays were carried out as previously described, with some modifications. Cells were grown to 80–90% confluency in 12-well plates, and a wound was created by dragging a plastic pipette tip across the cell surface. The remaining cells were washed three times in saline to remove cell debris before being incubated in serum-free medium and treated with the drug. Using an optical microscope, migrating cells in front of the wound were photographed after 0 and 72 h of incubation (Nikon, TS 100). ImageJ software was used to calculate the wound area (NIH, USA).

[4] = test system: CR02 (colorectal carcinoma); assay: Alamar blue viability of primary cancer cells; type: cell-based, human; settings: primary CRC (second listed); 25 μg/ml (RXC 31.3 μM, DOX 46 μM); 96 h
Protocol: as §1, with “nm. […]” for “nm.”

[5] = test system: HepG2 human hepatocellular carcinoma cells; settings: HepG2 in monolayers or 3D multicellular cancer spheroids; cited from earlier work
MCF-7 = assay: Alamar blue cytotoxicity assay; type: cell-based, human; settings: 72 h, read-out: IC50 and 95%CI
Protocol: as §1

HSC-3 = assay: Alamar blue cytotoxicity assay; type: cell-based, human; settings: 72 h, read-out: IC50 and 95%CI
Protocol: as §1

U-87 MG = assay: Alamar blue cytotoxicity assay; type: cell-based, human; settings: 72 h, read-out: IC50 and 95%CI
Protocol: as §1

SCC-9 = assay: Alamar blue cytotoxicity assay; type: cell-based, human; settings: 72 h, read-out: IC50 and 95%CI
Protocol: as §1

PANC-1 = assay: Alamar blue cytotoxicity assay; type: cell-based, human; settings: 72 h, read-out: IC50 and 95%CI
Protocol: as §1

JUKART = assay: Alamar blue cytotoxicity assay; type: cell-based, human; settings: 72 h, read-out: IC50 and 95%CI
Protocol: as §1

H1299 = assay: Alamar blue cytotoxicity assay; type: cell-based, human; settings: 72 h, read-out: IC50 and 95%CI
Protocol: as §1

A549 = assay: Alamar blue cytotoxicity assay; type: cell-based, human; settings: 72 h, read-out: IC50 and 95%CI
Protocol: as §1

HL-60 = assay: Alamar blue cytotoxicity assay; type: cell-based, human; settings: 72 h, read-out: IC50 and 95%CI
Protocol: as §1

HCT116 = assay: Alamar blue cytotoxicity assay; type: cell-based, human; settings: 72 h, read-out: IC50 and 95%CI
Protocol: as §1

MDA-MB-231 = assay: Alamar blue cytotoxicity assay; type: cell-based, human; settings: 72 h, read-out: IC50 and 95%CI
Protocol: as §1

KG-1a = assay: Alamar blue cytotoxicity assay; type: cell-based, human; settings: 72 h, read-out: IC50 and 95%CI
Protocol: as §1

HepG2 = assay: Alamar blue cytotoxicity assay; type: cell-based, human; settings: 72 h, read-out: IC50 and 95%CI
Protocol: as §1

NB4 = assay: Alamar blue cytotoxicity assay; type: cell-based, human; settings: 72 h, read-out: IC50 and 95%CI
Protocol: as §1

CAL 27 = assay: Alamar blue cytotoxicity assay; type: cell-based, human; settings: 72 h, read-out: IC50 and 95%CI
Protocol: as §1

SCC4 = assay: Alamar blue cytotoxicity assay; type: cell-based, human; settings: 72 h, read-out: IC50 and 95%CI
Protocol: as §1

SCC-25 = assay: Alamar blue cytotoxicity assay; type: cell-based, human; settings: 72 h, read-out: IC50 and 95%CI
Protocol: as §1

K-562 = assay: Alamar blue cytotoxicity assay; type: cell-based, human; settings: 72 h, read-out: IC50 and 95%CI
Protocol: as §1

THP-1 = assay: Alamar blue cytotoxicity assay; type: cell-based, human; settings: 72 h, read-out: IC50 and 95%CI
Protocol: as §1

OVCAR-3 = assay: Alamar blue cytotoxicity assay; type: cell-based, human; settings: 72 h, read-out: IC50 and 95%CI
Protocol: as §1

DU 145 = assay: Alamar blue cytotoxicity assay; type: cell-based, human; settings: 72 h, read-out: IC50 and 95%CI
Protocol: as §1

A-375 = assay: Alamar blue cytotoxicity assay; type: cell-based, human; settings: 72 h, read-out: IC50 and 95%CI
Protocol: as §1

With cis-[Ru(phen)2(xant)](PF6) [RXC] the “HCT116 CD133-positive cells” value (HCT116 cells [1]) was 10.1%, the mitochondrial transmembrane potential (HCT116 cells [2]) was “mitochondrial depolarization” and the IC50 (4T1) was 9.1 µM. The IC50 (B16-F10) was 2.58 µM, the cell migration (HCT116 cells [3]) was “inhibited cell migration” and the lung histology (2 mg/kg, one animal) was “hemorrhage with hemosiderin deposits”. The hematological analysis (RXC 2 mg/kg, DOX 0.8 mg/kg, i.p. once a day for 2 weeks) was “reduction in erythrocytes”, the “animals died during the treatment” value (RXC 2 mg/kg, DOX 0.8 mg/kg, i.p. once a day for 2 weeks, n = 15 per group) was “four” and the body weight (RXC 2 mg/kg, DOX 0.8 mg/kg, i.p. once a day for 2 weeks, p < 0.05) was “decrease in body weight”. The liver histology (RXC 2 mg/kg, DOX 0.8 mg/kg, mainly in treated animals) was “focal areas of hepatocyte coagulation necrosis”, the kidney histology (RXC 2 mg/kg, DOX 0.8 mg/kg, more evident than in control) was “focal areas of coagulation necrosis of the renal cortex tubules” and the reduced cell viability [4] was 37.4%. For the same substance, the cytotoxicity [5] was “potent cytotoxicity”, the IC50 (MCF-7) was 9.55 µM and the IC50 (HSC-3) was 4.84 µM. The IC50 (U-87 MG) was 7.03 µM, the IC50 (SCC-9) was 2.81 µM and the IC50 (PANC-1) was 11.8 µM. It also gave an IC50 (JUKART) of 4.08 µM, an IC50 (H1299) of 10.9 µM and an IC50 (A549) of 7.03 µM. The IC50 (HL-60) was 3.2 µM, the IC50 (HCT116) was 6.5 µM and the IC50 (MDA-MB-231) was 2.36 µM. The IC50 (KG-1a) was 2.31 µM, the IC50 (HepG2) was 6.28 µM and the IC50 (NB4) was 3.38 µM. For the same substance, the IC50 (CAL 27) was 5.4 µM, the IC50 (SCC4) was 1.89 µM and the IC50 (SCC-25) was 10.2 µM. For the same substance, the IC50 (K-562) was 3.88 µM, the IC50 (THP-1) was 2.8 µM and the IC50 (OVCAR-3) was 1.47 µM. The IC50 (DU 145) was 4.17 µM and the IC50 (A-375) was 3.46 µM.
